Test results reported in patent US20050049204A1, “Compounds for the treatment of flaviviridae infections” (priority 2003, published 2005).
Where two headings read alike, the source gives them in different places.

Tests used:
[1] = tested on: HCV replicon RNA in Huh7 cells; assay: Reversal studies with natural nucleosides: HCV RNA; type: cell-based, hepatitis C virus (HCV); conditions: for log10 reduction HCV: 100 μM, no nucleoside
Experimental: (§1) Incubation times differed according to the type of experiment.
(§2) Cells were incubated with the test compound and, simultaneously, the natural ribo- or 2′-deoxy nucleosides (adenosine, guanosine (G), cytidine (C), uridine (U), 2′-deoxycytidine (dC), 2′-deoxyuridine, thymidine, 2′-deoxyguanosine (dG), and 2′-deoxyadenosine) (Table 2).

[2] = tested on: rRNA in HCV replicon Huh7 cells; assay: Reversal studies with natural nucleosides: rRNA; type: cell-based; conditions: for log10 reduction rRNA: no nucleoside
Experimental: as §1, §2

[3] = tested on: HCV-replicon RNA-containing Huh7 cells (HCV RNA); assay: HCV replicon assay: HCV RNA quantified by Q-RT-PCR after 96 h of compound exposure; type: cell-based, hepatitis C virus (HCV); conditions: for log reduction at 10 µM / log reduction at 100 µM / EC90: Hepatitis C virus; for log reduction at 10 µM: read-out: Corrected HCV RNA log10 reduction at 10 μM; for EC90: read-out: Corrected HCV RNA EC90
Experimental: as §1

[4] = tested on: HCV replicon-containing Huh7 cell line; assay: Dynamics of replicon cell growth (cell count) over a 7-day period; conditions: for effect on cell proliferation: 7-day period; for effect on cell growth: seven-day assay, tested at approximately EC90 value
[5] = tested on: HCV replicon RNA in Huh7 cells; assay: HCV RNA levels in replicon cells over a 7-day period; type: cell-based, hepatitis C virus (HCV); conditions: for reducing the HCV RNA levels: 7-day period
[6] = tested on: rRNA in HCV-replicon RNA-containing Huh7 cells; assay: rRNA levels in HCV replicon cells (cellular toxicity), Q-RT-PCR after 96 h; conditions: 100 μM
Experimental: HCV replicon cells were seeded in the presence of test compound at approximately 10^3 cells per well in a 96-well plate and incubated for 96 hours. rRNA and HCV RNA were quantified by Q-RT-PCR. ●: HCV RNA levels; ◯: rRNA levels; ▾: HCV RNA levels after correction (=subtraction of rRNA) for cellular toxicity. […] The plots shown are the mean results of at least three independent experiments. EC90 values as given in Table 1 are read from the HCV curves corrected for cellular toxicity.
HCV-replicon RNA-containing Huh7 cells (Clone A cells; Apath, LLC, St. Louis, Mo.) were kept in exponential growth in DMEM media (high glucose, no pyruvate) containing 10% fetal bovine serum, 1× non-essential amino acids (100 units/ml), penicillin-streptomycin (100 μg/ml), glutamine (0.292 mg/ml), and G418 (1,000 μg/ml). Antiviral assays were performed in the same medium without G418. […] Cells were seeded in a 6-well plate at 10^5 cells per well. Candidate antiviral compounds were tested as described (Stuyver, et al. “A ribonucleoside analogue that blocks the replication of bovine viral diarrhea and hepatitis C viruses in culture” Antimicrob. Agents Chemother., January 2003, 47 (1), 244-254). Incubation times differed according to the type of experiment. At the end of the incubation step, cells were counted using the trypan-blue exclusion method, and total cellular RNA was isolated (Rneasy 96 kit, Qiagen, CA). Replicon RNA and an internal control (TaqMan Ribosomal RNA Control Reagents, Applied Biosystems, CA) were amplified in a single-step, multiplex RT-PCR protocol, as recommended by the manufacturer and as described (Stuyver, et al. “A ribonucleoside analogue that blocks the replication of bovine viral diarrhea and hepatitis C viruses in culture” Antimicrob. Agents Chemother., January 2003, 47 (1), 244-254).
Replicon cells were incubated in the absence or presence of these anti-metabolites for 96 hours, after which intracellular rRNA and HCV RNA levels were quantified (Table 1).

[7] = Huh-7, 96 h, corrected by subtraction of rRNA
[8] = Huh-7, 96 h, corrected by subtraction of rRNA, read-out: Corrected HCV RNA log10 reduction at 100 μM
[9] = Huh-7, 96 h, read-out: Log10 RNA reduction (100 μM) HCV
[10] = Huh-7, 96 h, read from HCV curves corrected for rRNA reduction
[11] = 96 h, corrected by subtraction of rRNA

SMILES | log10 reduction HCV [1] | log10 reduction rRNA ([2]; 100 μM) | log reduction at 10 µM [3, 7] | log reduction at 100 µM [3, 8] | log reduction at 100 µM [3, 9] | EC90 [3, 10] | Log10 RNA reduction (100 μM) rRNA [6] | log10 reduction HCV including natural nucleoside ([1]; 100 μM + U at 50 μM) | log10 reduction rRNA including natural nucleoside ([2]; 100 μM + U at 50 μM) | Corrected HCV RNA log10 reduction at 10 μM [3, 11] | Corrected HCV RNA log10 reduction at 100 μM [3, 11] | EC90 ([3]; Huh-7, 96 h) | effect on cell growth [4] | also measured
C[C@@]1(O)[C@H](O)[C@@H](CO)O[C@H]1n1cnc2c(N)ncnc21 [2′C—CH3-A, 2′-C-methyl-adenosine] | 2.32 ± 0.11 log10 | 2.96 ± 0.08 log10 | 2.05 | -0.64 ± 0.18 | 2.32 ± 0.11 | < 1 µM | 2.96 ± 0.08 log10 | – | – | – | – | – | – | effect on cell proliferation ([4]; 20 μM): minimal; reducing the HCV RNA levels ([5]; 20 μM): very potent
C[C@@]1(O)[C@H](O)[C@@H](CO)O[C@H]1n1ccc(N)nc1=O [2′C—CH3—C, 2′-C-methyl-cytidine] | – | – | 1 | 2.21 ± 0.47 | 2.2 ± 0.52 | 10.4 µM | −0.02 ± 0.05 log10 | – | – | – | – | – | – | log10 reduction HCV including natural nucleoside ([1]; 25 μM + C at 50 μM): 0.48 ± 0.02 log10; log10 reduction rRNA including natural nucleoside ([2]; 25 μM + C at 50 μM): 0.14 ± 0.04 log10; log10 reduction rRNA ([2]; 25 μM): −0.01 ± 0.02 log10; effect on cell proliferation ([4]; 100 μM): no; reducing the HCV RNA levels ([5]; 100 μM): very potent
O=C(O)C[C@H](NC(=O)CP(=O)(O)O)C(=O)O [PALA, N-(phosphonoacetyl)-L-aspartate] | 1.77 ± 0.02 log10 | 0.48 ± 0.02 log10 | – | – | – | – | 0.48 ± 0.02 log10 | 0.14 ± 0.03 log10 | −0.13 ± 0.10 log10 | 1.18 ± 0.11 log10 | 1.30 ± 0.05 log10 | 7.6 µM | minimal effect | –
NC(=O)c1[nH]nc([C@@H]2O[C@H](CO)[C@@H](O)[C@H]2O)c1O [pyrazofurin] | 1.88 ± 0.05 log10 | 0.42 ± 0.03 log10 | – | – | – | – | 0.42 ± 0.03 log10 | 0.35 ± 0.03 log10 | −0.01 ± 0.04 log10 | 1.16 ± 0.21 log10 | 1.46 ± 0.08 log10 | 3.8 µM | minimal effect | inhibition of the HCV RNA replication ([5]; seven-day assay, tested at approximately EC90 value): very potent inhibition
